SMILES strings stand for the structures. Where two headings read alike, the source gives them in different places.

For the experiment, the system named is firefly luciferase activity. The experiment in a line: Dual-Glo firefly/renilla luciferase reporter assay in cells. The format is cell-based. Background: Reporter assays use an easily measured gene product as a stand-in for the process of interest.
Where [1] appears, read: 24 hrs compound treatment, starting from 3 uM, 1:3 dilution, 10 points, read-out: Firefly Luciferase IC50.
Setting [2] is: 24 h, read-out: Firefly Luciferase IC50 (μM).

In the case of `CCOC(=O)Cn1cc(-c2ccccc2Nc2ccc(C(F)(F)F)cc2)c(C)n1` [Compound 76, ethyl 2-[3-methyl-4-[2-[4-(trifluoromethyl)anilino]phenyl]pyrazol-1-yl]acetate], under setting [1], the IC50 (commonly the point on the concentration scale where inhibition reaches its midpoint) was 0.1 to 1 µM. In the case of `Cc1ccc(-c2nnn(CCO)n2)c(Nc2ccc(C(F)(F)F)cc2)c1` [Compound 243, 2-(5-(4-methyl-2-((4-(trifluoromethyl)phenyl)amino)phenyl)-2H-tetrazol-2-yl)ethanol], the half-maximal inhibitory concentration (IC50) under setting [2] is below 0.1 µM. Turning to `CCc1ccc(Nc2ccc(C(F)(F)F)cc2)c(-c2nnn(CCO)n2)c1` [Compound 256, 2-[5-[5-ethyl-2-[4-(trifluoromethyl)anilino]phenyl]tetrazol-2-yl]ethanol], the half-inhibitory concentration (IC50) under setting [1] was below 0.1 µM. Turning to `OCCn1nnc(-c2ccccc2Nc2ccc(F)cc2)n1` [Compound 8, 2-[5-[2-(4-fluoroanilino)phenyl]tetrazol-2-yl]ethanol], the IC50 under setting [2] is 0.1 to 1 µM. For `FC(F)(F)c1ccc(Nc2ccccc2-c2nnn(C3CNC3)n2)cc1` [Compound 221, 2-(2-(azetidin-3-yl)-2H-tetrazol-5-yl)-N-(4-(trifluoromethyl)phenyl)aniline], the IC50 under setting [1] lay within 1 to 5 µM. `OCCCn1nnc(-c2ccccc2Nc2cccc(C(F)(F)F)c2)n1` [Compound 13, 3-[5-[2-[3-(trifluoromethyl)anilino]phenyl]tetrazol-2-yl]propan-1-ol]: the IC50 under setting [1] was 0.1 to 1 µM. On the same count and under the same terms, for `CO[C@@H](C)[C@@H](C)n1nnc(-c2ccccc2Nc2ccc(C(F)(F)F)cc2)n1` [Compound 212, 2-(2-((2R,3S)-3-methoxybutan-2-yl)-2H-tetrazol-5-yl)-N-(4-(trifluoromethyl)phenyl)aniline] the value was below 0.1 µM; for `OC1(Cn2nnc(-c3ccccc3Nc3ccc(C(F)(F)F)cc3)n2)CCNC1` (stereo not shown) [Compound 153, 3-((5-(2-((4-(trifluoromethyl)phenyl)amino)phenyl)-2H-tetrazol-2-yl)methyl)pyrrolidin-3-ol], 0.1 to 1 µM. On to `NCCCn1nnc(-c2ccccc2Nc2ccc(C(F)(F)F)cc2)n1` [Compound 216, 2-(2-(3-aminopropyl)-2H-tetrazol-5-yl)-N-(4-(trifluoromethyl)phenyl)aniline], for which, under setting [1], the 50% inhibitory concentration (IC50) lay within 0.1 to 1 µM. Still for that read-out and setting: under `Cn1nc(-c2ccccc2Nc2ccc(C(F)(F)F)cc2)nc1CCO` [Compound 205, 2-(1-methyl-3-(2-((4-(trifluoromethyl)phenyl)amino)phenyl)-1H-1,2,4-triazol-5-yl)ethan-1-ol] stands 1 to 5 µM; under `NCC(CO)n1nnc(-c2ccccc2Nc2ccc(C(F)(F)F)cc2)n1` (stereo not shown) [Compound 259, 3-amino-2-(5-(2-((4-(trifluoromethyl)phenyl)amino)phenyl)-2H-tetrazol-2-yl)propan-1-ol], 0.1 to 1 µM. `FC(F)(F)Oc1ccc(Nc2ccccc2-c2nnn(Cc3ccccn3)n2)cc1` [Compound 54, 2-(2-(pyridin-2-ylmethyl)-2H-tetrazol-5-yl)-N-(4-(trifluoromethoxy)phenyl)aniline]: the IC50 under setting [1] was in the range of 1 to 5 µM. With `O=C(Cn1nnc(-c2ccccc2Nc2ccc(C(F)(F)F)cc2)n1)c1ccccc1` [Compound 130, 1-phenyl-2-[5-[2-[4-(trifluoromethyl)anilino]phenyl]tetrazol-2-yl]ethanone], the half-maximal inhibitory concentration (IC50) under setting [1] is 1 to 5 µM. Still for that read-out and setting: under `CO[C@H](C)[C@@H](C)n1nnc(-c2ccccc2Nc2ccc(C(F)(F)F)cc2)n1` [Compound 213, 2-(2-((2R,3R)-3-methoxybutan-2-yl)-2H-tetrazol-5-yl)-N-(4-(trifluoromethyl)phenyl)aniline] stands 0.1 to 1 µM; under `CNCCn1nnc(-c2ccccc2Nc2ccc(C(F)(F)F)cc2)n1` [Compound 219, 2-(2-(2-(methylamino)ethyl)-2H-tetrazol-5-yl)-N-(4-(trifluoromethyl)phenyl) Aniline], 0.1 to 1 µM. The same measure, in the same setting: for `CC(CO)c1nc(-c2ccccc2Nc2ccc(C(F)(F)F)cc2)nn1C` (stereo not shown) [Compound 206, 2-(1-methyl-3-(2-((4-(trifluoromethyl)phenyl)amino)phenyl)-1H-1,2,4-triazol-5-yl)propan-1-ol] the value was 1 to 5 µM; for `CCC(O)Cn1nnc(-c2ccccc2Nc2ccc(C(F)(F)F)cc2)n1` (stereo not shown) [Compound 139, 1-(5-(2-((4-(trifluoromethyl)phenyl)amino)phenyl)-2H-tetrazol-2-yl)butan-2-ol], below 0.1 µM. As to `O[C@H]1CNC[C@@H]1n1nnc(-c2ccccc2Nc2ccc(C(F)(F)F)cc2)n1` [Compound 234, (3S,4S)-4-(5-(2-((4-(trifluoromethyl)phenyl)amino)phenyl)-2H-tetrazol-2-yl)pyrrolidin-3-ol], the half-maximal inhibitory concentration (IC50) under setting [1] fell in the range of 0.1 to 1 µM. Same read-out and setting: under `NS(=O)(=O)Cn1nnc(-c2ccccc2Nc2ccc(C(F)(F)F)cc2)n1` [Compound 101, (5-(2-((4-(trifluoromethyl)phenyl)amino)phenyl)-2H-tetrazol-2-yl)methane sulfonamide] stands 0.1 to 1 µM. As to `CCc1cccc(Nc2ccccc2-c2nnn(CCO)n2)c1` [Compound 17, 2-[5-[2-(3-ethylanilino)phenyl]tetrazol-2-yl]ethanol], under setting [2], the IC50 fell in the range of 0.1 to 1 µM.

`CC(C)(O)Cn1nnc(-c2ccccc2Nc2ccc(C(F)(F)F)cc2)n1` [Compound 106]: the IC50 under setting [1] is below 0.1 µM.

Consider `CCOC(=O)Cn1ncc(-c2ccccc2Nc2cccc(C(F)(F)F)c2)c1C` [Compound 90, ethyl 2-(5-methyl-4-(2-((3-(trifluoromethyl)phenyl)amino)phenyl)-1H-pyrazol-1-yl)acetate], for which the half-inhibitory concentration (IC50) under setting [1] lay in the range of 1 to 5 µM. On the same count and under the same terms, under `CO[C@H](C)[C@H](C)n1nnc(-c2ccccc2Nc2ccc(C(F)(F)F)cc2)n1` [Compound 211, 2-(2-((2S,3R)-3-methoxybutan-2-yl)-2H-tetrazol-5-yl)-N-(4-(trifluoromethyl)phenyl)aniline] stands 0.1 to 1 µM; under `FC(F)(F)c1ccc(Nc2ccccc2-c2nnn(Cc3ccncc3)n2)cc1` [Compound 41, 2-[2-(4-pyridylmethyl)tetrazol-5-yl]-N-[4-(trifluoromethyl)phenyl]aniline], 0.1 to 1 µM. `OCCn1nnc(-c2ccccc2Nc2ccc(SC(F)F)cc2)n1` [Compound 31, 2-[5-[2-[4-(difluoromethylsulfanyl)anilino]phenyl]tetrazol-2-yl]ethanol]: under setting [2], the 50% inhibitory concentration (IC50) lay in the range of 0.1 to 1 µM.

Consider `O[C@H]1CCC[C@H]1n1nnc(-c2ccccc2Nc2ccc(C(F)(F)F)cc2)n1` [Compound 201, (1S,2R)-2-(5-(2-((4-(trifluoromethyl)phenyl)amino)phenyl)-2H-tetrazol-2-yl)cyclopentan-1-ol], for which the concentration for half-maximal inhibition (IC50) under setting [1] was below 0.1 µM. On the same count and under the same terms, for `COC1CCCC1n1nnc(-c2ccccc2Nc2ccc(C(F)(F)F)cc2)n1` (stereo not shown) [Compound 214, 2-(2-(2-methoxycyclopentyl)-2H-tetrazol-5-yl)-N-(4-(trifluoromethyl)phenyl) Aniline] the value was 0.1 to 1 µM; for `OCCn1nnc(-c2ccccc2Nc2ccc(C(F)(F)F)cc2)n1` [Compound 23, 2-(5-(2-((4-(Trifluoromethyl)phenyl)amino)phenyl)-2H-tetrazol-2-yl)ethanol], below 0.1 µM. The same measure, in the same setting: under `OCCn1nnc(-c2cc(C3CC3)ccc2Nc2ccc(C(F)(F)F)cc2)n1` [Compound 255, 2-(5-(5-cyclopropyl-2-((4-(trifluoromethyl)phenyl)amino)phenyl)-2H-tetrazol-2-yl)ethanol] stands below 0.1 µM. With `OCCn1nnc(-c2ccccc2Nc2ccc(Br)cc2)n1` [Compound 207, 2-(5-(2-((4-bromophenyl)amino)phenyl)-2H-tetrazol-2-yl)ethan-1-01], the IC50 under setting [2] was 0.1 to 1 µM. Still for that read-out and setting: for `OCCn1nnc(-c2cc(OC(F)F)ccc2Nc2ccc(C(F)(F)F)cc2)n1` [Compound 260, 2-(5-(5-(difluoromethoxy)-2-((4-(trifluoromethyl)phenyl)amino)phenyl)-2H-tetrazol-2-yl)ethanol] the value was below 0.1 µM. With `OC1(Cn2nnc(-c3ccccc3Nc3ccc(C(F)(F)F)cc3)n2)CCCOC1` (stereo not shown) [Compound 142, 3-[[5-[2-[4-(trifluoromethyl)anilino]phenyl]tetrazol-2-yl]methyl]tetra hydropyran-3-ol], the half-maximal inhibitory concentration (IC50) under setting [1] is 0.1 to 1 µM. On the same count and under the same terms, under `CC(=O)N1CCC(O)(Cn2nnc(-c3ccccc3Nc3ccc(C(F)(F)F)cc3)n2)C1` (stereo not shown) [Compound 154, 1-(3-hydroxy-3-((5-(2-((4-(trifluoromethyl)phenyl)amino)phenyl)-2H-tetrazol-2-yl)methyl)pyrrolidin-1-yl)ethanone] stands 0.1 to 1 µM; under `[O-][S+]1CC(O)(Cn2nnc(-c3ccccc3Nc3ccc(C(F)(F)F)cc3)n2)C1` (stereo not shown) [Compound 245, 1-oxo-3-[[5-[2-[4-(trifluoromethyl)anilino]phenyl]tetrazol-2-yl]methyl]thietan-3-ol], 0.1 to 1 µM; under `CCOC(=O)Cn1cnc(-c2ccccc2Nc2ccc(C(F)(F)F)cc2)c1` [Compound 202, ethyl 2-(4-(2-((4-(trifluoromethyl)phenyl)amino)phenyl)-1H-imidazol-1-yl)acetate], 0.1 to 1 µM. The same measure, in the same setting: for `FC(F)(F)c1ccc(Nc2ccccc2-c2nnn(CC3COC3)n2)cc1` [Compound 166, 2-(2-(oxetan-3-ylmethyl)-2H-tetrazol-5-yl)-N-(4-(trifluoromethyl)phenyl) Aniline] the value was 0.1 to 1 µM. As for `CC(O)Cn1nnc(-c2ccccc2Nc2ccc(C(F)(F)F)cc2)n1` (stereo not shown) [Compound 105, 1-[5-[2-[4-(trifluoromethyl)anilino]phenyl]tetrazol-2-yl]propan-2-ol], the IC50 under setting [2] is below 0.1 µM.

For `C[C@H](c1ccccc1)N1C(=O)OC[C@H]1Cn1nnc(-c2ccccc2Nc2ccc(C(F)(F)F)cc2)n1` [Compound 132, (4R)-3-[(1R)-1-phenylethyl]-4-[[5-[2-[4-(trifluoromethyl)anilino]phenyl]tetrazol-2-yl]methyl]oxazolidin-2-one], the concentration for half-maximal inhibition (IC50) under setting [1] fell in the range of 0.1 to 1 µM. The same measure, in the same setting: for `OCCn1nnc(-c2ccccc2Nc2ccc(SC(F)(F)F)cc2)n1` [Compound 248, 2-(5-(2-((4-((trifluoromethyl)thio)phenyl)amino)phenyl)-2H-tetrazol-2-yl)ethanol] the value was 0.1 to 1 µM; for `CS(=O)(=O)NCCn1nnc(-c2ccccc2Nc2ccc(C(F)(F)F)cc2)n1` [Compound 93, N-[2-[5-[2-[4-(trifluoromethyl)anilino]phenyl]tetrazol-2-yl]ethyl]methane Sulfonamide], 1 to 5 µM.

Values taken from US11186554B2, “Non-fused tricyclic compounds” (VIVACE THERAPEUTICS, INC., priority 2017, dated 2021).
